Experimental data: patent US20240390298A1, “CYCLOHEXYL BETA-HYDROXY ALKYL AMINES AND MEDICAL USES THEREOF” (ATROGI AB, priority 2021, published 2024)
Where a name gives a salt, the structure may show the parent alone.

Assays:
L6-myotubes [1] = experiment: Glucose uptake in differentiated L6-myotubes (3H-2-deoxyglucose), compared to isoproterenol; assay type: cell-based; settings: agonist 1×10^−5 M, 50 nM 3H-2-deoxyglucose; for Emax at 10 µM: read-out: Biological example 1: glucose uptake, activity compared to that of isoproterenol
Summary of the method: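 Serum-starved differentiated L6 myotubes stimulated with agonist at 1×10^−5 M for 1 h 40 min, re-dosed in glucose-free medium for 20 min, then given 50 nM ^3H-2-deoxyglucose for 10 min. Uptake read by β-counting of NaOH lysates; activity expressed relative to isoproterenol.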

L6-myotubes [2] = experiment: Measurement of intracellular cAMP levels in differentiated L6 cells (alpha screen cAMP kit), compared to isoproterenol; assay type: cell-based; settings: Rattus norvegicus, L6, 0.25 h, agonist 1×10^−5 M, 15 min, read-out: Biological example 2: intracellular cAMP levels, activity compared to that of isoproterenol
Summary of the method: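 L6 myoblasts were differentiated into myotubes over 7 days in 2% FBS, then serum-starved overnight. Agonist at 1×10^−5 M final was applied for 15 min in HBSS with 1% BSA, 5 mM HEPES and 1 mM IBMX, pH 7.4. After ethanol extraction and lysis, cAMP was quantified by AlphaScreen, with activity expressed relative to isoproterenol.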

Row | Compound | Emax at 10 µM (L6-myotubes [1]) [%] | Emax at 10 µM (L6-myotubes [2]) [%] | Biological example 1: glucose uptake, activity compared to that of isoproterenol (L6-myotubes [1])
1 | CC(C)(CC[C@H]1CC[C@H](O)CC1)NC[C@H](O)c1cccc(F)c1 [Example 61, (1S,4r)-4-(3-(((R)-2-(3-Fluorophenyl)-2-hydroxyethyl)amino)-3-methyl-butyl)cyclohexan-1-ol] | 25 to 50 | < 25 | –
2 | CO[C@H]1CC[C@@H](C(C)(C)NC[C@H](O)c2cncc(F)c2)CC1 [Example 6, (R)-1-(5-fluoropyridin-3-yl)-2-((2-((1s,4S)-4-methoxycyclohexyl)propan-2-yl)amino)ethan-1-ol] | < 25 | < 25 | –
3 | COC(=O)[C@H]1CC[C@@H](CC(C)(C)NC[C@H](O)c2cccc(F)c2)CC1 [Example 103, Methyl (1S,4s)-4-(2-(((R)-2-(3-fluorophenyl)-2-hydroxyethyl)amino)-2-methylpropyl)cyclohexane-1-carboxylate] | – | < 25 | + + +
4 | CC(C)(NC[C@H](O)c1cncc(F)c1)[C@H]1CC[C@H](NS(C)(=O)=O)CC1 [Example 83, N-((1R,4r)-4-(2-(((R)-2-(5-Fluoropyridin-3-yl)-2-hydroxyethyl)amino)-propan-2-yl)cyclohexyl)methanesulfonamide] | 25 to 50 | < 25 | –
5 | COC(=O)[C@H]1CC[C@H](C(C)(C)NC[C@H](O)c2cncc(F)c2)CC1 [Example 100, Methyl (1R,4r)-4-(2-(((R)-2-(5-fluoropyridin-3-yl)-2-hydroxyethyl)amino)-propan-2-yl)cyclohexane-1-carboxylate] | – | < 25 | + + +
6 | CC(=O)N[C@H]1CC[C@@H](CC(C)(C)NC[C@H](O)c2cncc(F)c2)CC1 [Example 176, N-((1S,4s)-4-(2-(((R)-2-(5-Fluoropyridin-3-yl)-2-hydroxyethyl)amino)-2-methylpropyl)cyclohexyl)acetamide] | – | < 25 | + + +
7 | CC(C)(C[C@H]1CC[C@H](NC(=O)C(C)(C)C)CC1)NC[C@H](O)c1cccc(F)c1.Cl [Example 154, N-((1R,4r)-4-(2-(((R)-2-(3-Fluorophenyl)-2-hydroxyethyl)amino)-2-methylpropyl)cyclohexyl)pivalamide hydrochloride] | – | 25 to 50 | + + +
8 | CC(=O)N[C@H]1CC[C@H](C(C)(C)NC[C@H](O)c2cncc(F)c2)CC1 [Example 81, N-((1R,4r)-4-(2-(((R)-2-(5-Fluoropyridin-3-yl)-2-hydroxyethyl)amino)-propan-2-yl)cyclohexyl)acetamide] | – | < 25 | + + +
9 | CC(=O)N[C@H]1CC[C@H](CC(C)(C)NC[C@H](O)c2cccc(C(F)(F)F)n2)CC1 [Example 151, N-((1S,4r)-4-(2-(((S)-2-Hydroxy-2-(6-(trifluoromethyl)pyridin-2-yl)-ethyl)amino)-2-methylpropyl)cyclohexyl)acetamide dihydrochloride] | – | < 25 | + + +
10 | CC(C)(C[C@H]1CC[C@H](O)CC1)NC[C@H](O)c1cncc(F)c1 [Example 52, (1R,4r)-4-(2-(((R)-2-(5-Fluoropyridin-3-yl)-2-hydroxyethyl)amino)-2-methylpropyl)cyclohexan-1-ol] | – | < 25 | + + +
11 | CC(C)(C[C@H]1CC[C@@H](NS(C)(=O)=O)CC1)NC[C@H](O)c1cccc(C(F)(F)F)n1 [Example 150, N-((1R,4s)-4-(2-(((S)-2-Hydroxy-2-(6-(trifluoromethyl)pyridin-2-yl)ethyl)-amino)-2-methylpropyl)cyclohexyl)methanesulfonamide dihydrochloride] | – | < 25 | + + +
